For this data set, the system named is GENE-TOX genotoxicity assays, various organisms and cells. Briefly: GENE-TOX mutagenicity studies.
[1] abbreviates: Species/Cell Type: Chinese hamster lung (V79) cells, Assay Type: Forward gene mutation at the HPRT or ouabain locus, Assay Code: V79+, Evaluation Type: Evaluation A (Pre-1980).
Where [2] appears, read: Species/Cell Type: Salmonella typhimurium (one or more of the five standard strains: TA98, TA100, TA1535, TA1537, and TA1538), Assay Type: Histidine reverse gene mutation, Ames assay, Assay Code: SAL+, Evaluation Type: Evaluation A (Pre-1980).
[3] abbreviates: Species/Cell Type: Salmonella typhimurium, Assay Type: Forward and reverse gene mutation, body fluid assay, Assay Code: BFU-, Evaluation Type: Evaluation A (Pre-1980).
The mark [4] stands for this setting: Species/Cell Type: Salmonella typhimurium (one or more of the five standard strains: TA98, TA100, TA1535, TA1537, and TA1538), Assay Type: Histidine reverse gene mutation, Ames assay, Assay Code: SAL+*, Activation: With metabolic activation, Evaluation Type: Evaluation A (Pre-1980).

Active and inactive are the calls of the source. The rule behind the calls is not given here.

Turning to `COS(C)(=O)=O`, the mutagenic call is “active; positive” (Species/Cell Type: Arabidopsis species, Assay Type: Gene mutation, Assay Code: ARM+, Evaluation Type: Evaluation A (Pre-1980)); “active; positive” (Species/Cell Type: Aspergillus nidulans, Assay Type: Reverse gene mutation, Assay Code: ASR+, Evaluation Type: Evaluation A (Pre-1980)); “active; positive” under setting [1]; “active; positive” (Species/Cell Type: Chinese hamster ovary (CHO) cells, Assay Type: Forward gene mutation at the HPRT locus, Assay Code: CHO+D, Dose Response: With dose response, Evaluation Type: Evaluation A (Pre-1980)); “active; positive” (Species/Cell Type: Drosophila melanogaster, Assay Type: Sex-linked recessive lethal gene mutation, Assay Code: SRL+, Evaluation Type: Evaluation A (Pre-1980)); “active; positive” (Species/Cell Type: Drosophila melanogaster, Sex: Male, Assay Type: Heritable translocation test, chromosome aberrations, Assay Code: DHT+, Evaluation Type: Evaluation A (Pre-1980)). The mutagenic call runs as follows: (Species/Cell Type: Escherichia coli WP2, Assay Type: Tryptophan reverse gene mutation, Assay Code: WP2+D, Dose Response: With dose response, Evaluation Type: Evaluation A (Pre-1980)) “active; positive”; (Species/Cell Type: Escherichia coli WP2 UVRA, Assay Type: Tryptophan reverse gene mutation, Assay Code: WPU+D, Dose Response: With dose response, Evaluation Type: Evaluation A (Pre-1980)) “active; positive”; (Species/Cell Type: Escherichia coli polA (W3119 vs P3478), Assay Type: Rec-assay, DNA effects (bacterial DNA repair), Assay Code: RE1+, Evaluation Type: Evaluation A (Pre-1980)) “active; positive”; (Species/Cell Type: Escherichia coli, Saccharomyces cerevisiae, Neurospora crassa, human lymphoid cells, Assay Type: Forward and reverse gene mutation, lethal mutation, mitotic recombination and gene conversion, chromosome effects, DNA e, Assay Code: HM9+, Evaluation Type: Evaluation A (Pre-1980)) “active; positive”; (Species/Cell Type: F1 mouse, Sex: Male, Assay Type: Sperm morphology, Assay Code: SPFT, Evaluation Type: Evaluation A (Pre-1980)) “no conclusion”; (Species/Cell Type: Glycine max (soybean), Assay Type: Gene mutation, Assay Code: GLM+, Evaluation Type: Evaluation A (Pre-1980)) “active; positive”. The mutagenic call reads like this: (Species/Cell Type: Hordeum vulgare (barley), Assay Type: Chromosome aberrations, Assay Code: HOC+, Evaluation Type: Evaluation A (Pre-1980)) “active; positive”; (Species/Cell Type: Hordeum vulgare (barley), Assay Type: Gene mutation, Assay Code: HOM+D, Dose Response: With dose response, Evaluation Type: Evaluation A (Pre-1980)) “active; positive”; (Species/Cell Type: Human diploid fibroblasts, Assay Type: Unscheduled DNA synthesis (UDS) in vitro, DNA effects, Assay Code: UDH+D, Dose Response: With dose response, Evaluation Type: Evaluation A (Pre-1980)) “active; positive”; (Species/Cell Type: Human lymphocytes or leukocytes, Assay Type: Chromosome aberrations in vivo, Assay Code: CY8+, Evaluation Type: Evaluation A (Pre-1980)) “active; positive”; (Species/Cell Type: Human lymphocytes, Assay Type: Micronucleus test in vitro, chromosome aberrations, Assay Code: MN7+, Evaluation Type: Evaluation A (Pre-1980)) “active; positive”; (Species/Cell Type: Human lymphocytes, Assay Type: Sister-chromatid exchange (SCE) in vitro, Assay Code: SCL+, Evaluation Type: Evaluation A (Pre-1980)) “active; positive”. In addition, the mutagenic call reads like this: (Species/Cell Type: Human, Assay Type: Sister-chromatid exchange (SCE) in vitro, Assay Code: SC1+D, Dose Response: With dose response, Evaluation Type: Evaluation A (Pre-1980)) “active; positive”; (Species/Cell Type: Mammalian germ cells, Sex: Male, Assay Type: Chromosome aberrations in vivo, Assay Code: CY9+, Evaluation Type: Evaluation A (Pre-1980)) “active; positive”; (Species/Cell Type: Mammalian oocytes or early embryo, Assay Type: Chromosome aberrations in vivo, Assay Code: CYO+D, Dose Response: With dose response, Evaluation Type: Evaluation A (Pre-1980)) “active; positive”; (Species/Cell Type: Mammalian polychromatic erythrocytes, Assay Type: Micronucleus test, chromosome aberrations, Assay Code: MNT+, Evaluation Type: Evaluation A (Pre-1980)) “active; positive”; (Species/Cell Type: Mouse germ cells, Sex: Male, Assay Type: Unscheduled DNA synthesis (UDS) in vivo, DNA effects, Assay Code: UDT+, Evaluation Type: Evaluation A (Pre-1980)) “active; positive”; (Species/Cell Type: Mouse lymphoma (L5178Y) cells, Assay Type: Forward gene mutation at the thymidine kinase (TK) locus, chromosome aberrations, Assay Code: L51+, Evaluation Type: Evaluation A (Pre-1980)) “active; positive”. Moreover, the mutagenic call by setting is: (Species/Cell Type: Mouse, Sex: Female, Assay Type: Spot test, gene mutation, Assay Code: MST+, Evaluation Type: Evaluation A (Pre-1980)) “active; positive”; (Species/Cell Type: Mouse, Sex: Male, Assay Type: Heritable translocation test, chromosome aberrations, Assay Code: HTT+, Evaluation Type: Evaluation A (Pre-1980)) “active; positive”; (Species/Cell Type: Mouse, Sex: Male, Assay Type: Specific locus test, gene mutation, Assay Code: SLT+, Evaluation Type: Evaluation A (Pre-1980)) “active; positive”; (Species/Cell Type: Mouse, Sex: Male, Assay Type: Sperm morphology, Assay Code: SPI+, Evaluation Type: Evaluation A (Pre-1980)) “active; positive”; (Species/Cell Type: Neurospora crassa, Assay Type: Forward gene mutation, Assay Code: NEF+, Evaluation Type: Evaluation A (Pre-1980)) “active; positive”; (Species/Cell Type: Nonhuman, Assay Type: Sister-chromatid exchange (SCE) in vitro, Assay Code: SC2+D, Dose Response: With dose response, Evaluation Type: Evaluation A (Pre-1980)) “active; positive”. The mutagenic call is, setting by setting: (Species/Cell Type: Nonhuman, Assay Type: Sister-chromatid exchange (SCE) in vivo, Assay Code: SC3+D, Dose Response: With dose response, Evaluation Type: Evaluation A (Pre-1980)) “active; positive”; (Species/Cell Type: Rabbit, Sex: Male, Assay Type: Sperm morphology, Assay Code: SPRT, Evaluation Type: Evaluation A (Pre-1980)) “no conclusion”; (Species/Cell Type: Rat primary hepatocytes, Assay Type: Unscheduled DNA synthesis (UDS) in vitro, DNA effects, Assay Code: UDP+, Evaluation Type: Evaluation A (Pre-1980)) “active; positive”; (Species/Cell Type: Rodents, Sex: Male, Assay Type: Dominant lethal test, Assay Code: DLT+D, Dose Response: With dose response, Evaluation Type: Evaluation A (Pre-1980)) “active; positive”; (Species/Cell Type: Saccharomyces cerevisiae, Assay Type: Forward gene mutation, Assay Code: YEF+, Evaluation Type: Evaluation A (Pre-1980)) “active; positive”; (Species/Cell Type: Saccharomyces cerevisiae, Assay Type: Mitotic recombination or gene conversion, Assay Code: YEC+, Evaluation Type: Evaluation A (Pre-1980)) “active; positive”. Besides, the mutagenic call reads like this: (Species/Cell Type: Saccharomyces cerevisiae, Assay Type: Mitotic recombination or gene conversion, Assay Code: YEH+, Evaluation Type: Evaluation A (Pre-1980)) “active; positive”; (Species/Cell Type: Saccharomyces cerevisiae, Assay Type: Reverse gene mutation, Assay Code: YER+, Evaluation Type: Evaluation A (Pre-1980)) “active; positive”; under setting [2], “active; positive”; under setting [3], “inactive; negative”; (Species/Cell Type: Schizosaccharomyces pombe, Assay Type: Forward gene mutation, Assay Code: YEY+, Evaluation Type: Evaluation A (Pre-1980)) “active; positive”; (Species/Cell Type: Schizosaccharomyces pombe, Assay Type: Reverse gene mutation, Assay Code: YEZ+, Evaluation Type: Evaluation A (Pre-1980)) “active; positive”. The mutagenic call is “active; positive” (Species/Cell Type: Syrian hamster embryo (SA7/SHE) cells, Assay Type: Cell transformation, viral enhanced, Assay Code: CT7+, Evaluation Type: Evaluation A (Pre-1980)); “active; positive” (Species/Cell Type: Syrian hamster embryo (SHE) cells, Assay Type: Cell transformation, focus assay, Assay Code: CTF+, Evaluation Type: Evaluation A (Pre-1980)); “active; positive” (Species/Cell Type: Vicia faba, Assay Type: Chromosome aberrations, Assay Code: VIC+D, Dose Response: With dose response, Evaluation Type: Evaluation A (Pre-1980)). In addition, the call (Species/Cell Type: Nonhuman, Assay Type: In vivo carcinogenicity studies, Assay Code: CCG+, Evaluation Type: Evaluation A (Pre-1980)) was “active; positive”.
For the compound `CCCOc1ccc(CC(=O)OC)cc1CSC(=N)N`, the mutagenic call (Species/Cell Type: Saccharomyces cerevisiae, Assay Type: Reverse gene mutation, Assay Code: YERT, Evaluation Type: Evaluation A (Pre-1980)) was “no conclusion”.
Regarding `c1ccc2c3c(ccc2c1)Cc1c(ccc2ccccc12)C3`, the mutagenic call under setting [4] is “active; positive”.
Take `CCCCCN(CCCCC)N=O`: the mutagenic call reads like this: under setting [1], “active; positive”; under setting [4], “active; positive”.
In the case of `O=C1CN=C(c2ccccc2Cl)c2cc([N+](=O)[O-])ccc2N1`, the mutagenic call was “inactive; negative” under setting [3]; “inactive; negative” (Species/Cell Type: Salmonella typhimurium, Assay Type: Forward and reverse gene mutation, host-mediated assay, Assay Code: HMA-, Evaluation Type: Evaluation A (Pre-1980)).
Turning to `Nc1c2ccccc2nc2ccccc12`, the mutagenic call is, setting by setting: (Species/Cell Type: Human diploid fibroblasts, Assay Type: Unscheduled DNA synthesis (UDS) in vitro, DNA effects, Assay Code: UDH-, Evaluation Type: Evaluation A (Pre-1980)) “inactive; negative”; (Species/Cell Type: Nonhuman, Assay Type: Sister-chromatid exchange (SCE) in vitro, Assay Code: SC2+, Evaluation Type: Evaluation B (Post-1980)) “active; positive”; under setting [2], “active; positive”.

Values taken from PubChem BioAssay AID1259408 (Genetic Toxicology Data Bank (GENE-TOX), 2018).
